# Key:
# T24 cells = assay: Mitomycin C IC50, T24 cells; assay type: cell-based, Human; conditions: 1x fold IC50 treatment concentration
# 5637 cells = assay: Mitomycin C IC50, 5637 cells; assay type: cell-based, Human; conditions: 1x fold IC50 treatment concentration
# KU19-19 cells = assay: Mitomycin C IC50, KU19-19 cells; assay type: cell-based, Human; conditions: 1x fold IC50 treatment concentration
# ICAM-1 [1] = assay: QPCR for ICAM-1 expression after Mitomycin C; assay type: cell-based, Human; conditions: 5637 cancer cell line exposed to Mitomycin C
# Method: (§1) FIGS. 4A-B: QPCR for ICAM-1/DAF expression. FIG. 4a) On 5637 & T24 cancer cell lines 24 hrs after irradiation (Gy 4-10). FIG. 4b) On 5637 cancer cell line exposed to Mitomycin C.
# (§2) Exposure to the chemotherapy agent Mitomycin C, up-regulates both ICAM-1 and DAF at the RNA level (FIG. 4b). To mimic patient exposure to Mitomycin C T24, RU19-19 and 5637 cells were pulsed with drug for 1, 3, 7, 24 hrs and ICAM-1 and DAF expression was measured by FACS analysis at 24 hrs.
# DAF [2] = assay: QPCR for DAF expression after Mitomycin C; assay type: cell-based, Human; conditions: 5637 cancer cell line exposed to Mitomycin C
# Method: as §1, §2
# ICAM-1 [3] = assay: FACS analysis of ICAM-1 (CD54) expression after Mitomycin C pulse; assay type: cell-based, Human
# Method: (§3) FIG. 5: FACS analysis of ICAM-1/DAF express in bladder cancer cell line pulse with Mitomycin C (×0.5 fold IC50×1, ×2) for 1, 3, 7 and 24 hrs.
# (§4) In brief, bladder cancer cells were plated at 5×10^5 cells per well (2 ml) of a 6 well tray and incubated at 37° C. for 24 hrs. The cells were treated with Mitomycin C (2× fold IC50 1× fold IC50, 0.5× fold IC50) and each concentration incubated at 37° C. for 1, 3, 7 and 24 hrs. Therefore T24 cells were treated 0.75, 0.375, 0.1876 ug/ml Mitomycin C, 5637 cells were treated with 0.68, 0.34, 0.17 ug/ml Mitomycin C and KU19-19 cells were treated with 1.4876, 0.7438, 0.3719 ug/ml. The cells were trypsinised and centrifuged for 3 mins at 1500 rpm to a pellet and re-suspended in FACS Buffer (PBS containing 10% BSA and 1% sodium azide). 100 ul of cells were added to appropriate wells in a 96-well round-bottomed plate. Antibodies were prepared at 1:10 in FACS buffer CD54 PE (BD: 347977) mIgG2b, CD55 PE (BD: 555694) mIgG2a and Isotype controls. […] Samples were read on a MACSQuant™ Analyzer (Bench top flow cytometer).
# as §2
# DAF [4] = assay: FACS analysis of DAF (CD55) expression after Mitomycin C pulse; assay type: cell-based, Human; conditions: T24, RU19-19 and 5637 cells; short pulse (1-3 hrs); measured at 24 hrs
# Method: as §3, §4, §2
# CVA21 = CVA21 viral replication in 5637 cells on exposure to MMC (TCID50 titration on SK-MEL-28); assay type: cell-based; conditions: CVA21 MOI 3, 0.4375 or 0.875 ug/ml Mitomycin C, 24 or 48 hours
# Method: Monolayers of 5637 bladder cancer cells were plated and incubated at 37° C./5% CO2 overnight. The media was removed, and CVA21 added at an MOI of 3 in 10% FCS medium containing 0, 0.4375 or 0.875 ug/ml Mitomycin C. The cells were then incubated at 37° C. for 24 or 48 hours. The plates were then frozen at −80° C. for 1 hour or o/n and then thawed after which cell CVA21 lysate was serially diluted 1:10 in 2% DMEM. The different concentrations of lysate were then added to SK-MEL-28 cells which had previously been plated at 1×10^4 cells per well (100 μL) in a 96 well plate in 10% DMEM. The assay was then incubated at 37° C. for 5 days, after which the media was removed from the cells and 100 ul of 0.1% Glutaldehyde (Sigma) in PBS was added. After an incubation of 10 mins at RT, the Glutaldehyde solution was removed and 100 ul of 0.1% w/v Crystal Violet solution (in 20% Ethanol) was added in order to visualise the cells. Following another incubation of 10 mins at RT the excess Crystal Violet was removed with tap water. TCID50 was calculated by the Spearman & Kärber algorithm as described in Hierholzer & Killington (1996), Virology Methods Manual, p. 374.
smiles,measurement,setting,value
"CO[C@@]12[C@H](COC(N)=O)C3=C(C(=O)C(C)=C(N)C3=O)N1C[C@@H]1N[C@@H]12 [Mitomycin C, mitomycin C]",IC50,T24 cells,0.375 µg/mL
same,IC50,5637 cells,0.34 µg/mL
same,IC50,KU19-19 cells,0.7438 µg/mL
same,ICAM-1 expression at the RNA level,ICAM-1 [1],up-regulates
same,DAF expression at the RNA level,DAF [2],up-regulates
same,ICAM-1 expression by FACS,"ICAM-1 [3]; T24, RU19-19 and 5637 cells, short pulse (1-3 hrs), measured at 24 hrs",strongly amplified
same,ICAM-1 amplification,"ICAM-1 [3]; one hour pulse of MMC, present from at least 4 hours after exposure",strong ICAM-1 amplification
same,DAF expression by FACS,DAF [4],strongly amplified
same,effect on CVA21 viral replication,CVA21,enhanced viral replication

# — patent US20190134120A1, “METHODS FOR THE TREATMENT OF BLADDER CANCER” (Viralytics Limited, priority 2013, published 2019)
